IC50 data for 19 molecules are collected here from patent US11987588B2, “Modulators of the beta-3 adrenergic receptor useful for the treatment or prevention of heart failure and disorders related thereto” (Arena Pharmaceuticals, Inc., priority 2017, dated 2024).

For this experiment, the target named is Beta-3 Adrenergic Receptor (Homo sapiens (Human), UniProt P13945). Kind of experiment: Homogeneous Time-Resolved Fluorescence (HTRF) cAMP antagonist assay, IC50 determination. In kind it is cell-based. As to conditions: CHO-K1 cells stably expressing recombinant receptor, isoproterenol at EC90. In short, it runs like this: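 CHO-K1 cells stably expressing the recombinant receptor were preincubated with compound (10-point, 5-fold dilutions; top final typically 10 or 100 μM) in PBS with 1 mM IBMX, then stimulated with isoproterenol at its EC90 for 1 h at room temperature. cAMP was read by HTRF against an on-plate standard curve.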
Chain of Beta-3 Adrenergic Receptor (P13945 whole entry, species assumed): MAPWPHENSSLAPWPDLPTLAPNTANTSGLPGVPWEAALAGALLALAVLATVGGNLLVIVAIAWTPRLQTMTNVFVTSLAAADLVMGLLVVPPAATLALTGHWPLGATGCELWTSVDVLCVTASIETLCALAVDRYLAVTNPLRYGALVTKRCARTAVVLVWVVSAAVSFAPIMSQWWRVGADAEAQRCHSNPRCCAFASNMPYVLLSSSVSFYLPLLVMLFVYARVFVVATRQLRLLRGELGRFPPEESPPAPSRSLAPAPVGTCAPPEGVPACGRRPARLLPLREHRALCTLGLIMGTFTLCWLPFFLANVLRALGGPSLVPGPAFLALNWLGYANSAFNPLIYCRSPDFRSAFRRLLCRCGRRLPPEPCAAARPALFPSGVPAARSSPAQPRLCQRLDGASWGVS
For the molecule `CNS(=O)(=O)c1cccc(OC[C@@H](O)CN[C@H]2COC3(CCN(S(=O)(=O)c4cccc5nsnc45)CC3)C2)c1` [Compound 245, 3-((S)-3-((R)-8-(benzo[c][1,2,5]thiadiazol-4-ylsulfonyl)-1-oxa-8-azaspiro[4.5]decan-3-ylamino)-2-hydroxypropoxy)-N-methylbenzenesulfonamide], the IC50 (commonly the point on the concentration scale where inhibition reaches its midpoint) worked out at 0.0155 µM. With `CN(C)S(=O)(=O)c1cccc(OC[C@@H](O)CNC2COC3(CCN(S(=O)(=O)c4cccc(Cl)c4)CC3)C2)c1` (stereo partly drawn) [Compound 246, 3-((2S)-3-(8-(3-chlorophenylsulfonyl)-1-oxa-8-azaspiro[4.5]decan-3-ylamino)-2-hydroxypropoxy)-N,N-dimethylbenzenesulfonamide], the half-inhibitory concentration (IC50) stood at 0.0386 µM.

As for `COc1ccc(S(=O)(=O)N2CCC3(CC2)CC(NC[C@H](O)COc2cccc(S(=O)(=O)N(C)C)c2)CO3)cc1C` (stereo partly drawn) [Compound 247, 3-((2S)-2-hydroxy-3-(8-(4-methoxy-3-methylphenylsulfonyl)-1-oxa-8-azaspiro[4.5]decan-3-ylamino)propoxy)-N,N-dimethylbenzenesulfonamide], the 50% inhibitory concentration (IC50) was 0.0272 µM. On to `Cc1ccc(F)c(S(=O)(=O)N2CCC3(CC2)CC(NC[C@H](O)COc2cccc(S(=O)(=O)N(C)C)c2)CO3)c1` (stereo partly drawn) [Compound 248, 3-((2S)-3-(8-(2-fluoro-5-methylphenylsulfonyl)-1-oxa-8-azaspiro[4.5]decan-3-ylamino)-2-hydroxypropoxy)-N,N-dimethylbenzenesulfonamide], for which the 50% inhibitory concentration (IC50) was 0.0405 µM.

As to `Cc1cc(S(=O)(=O)N2CCC3(CC2)CC(NC[C@H](O)COc2cccc(S(=O)(=O)N(C)C)c2)CO3)ccc1Br` (stereo partly drawn) [Compound 249, 3-((2S)-3-(8-(4-bromo-3-methylphenylsulfonyl)-1-oxa-8-azaspiro[4.5]decan-3-ylamino)-2-hydroxypropoxy)-N,N-dimethylbenzenesulfonamide], the IC50 turned out to be 0.0295 µM. As for `CN(C)S(=O)(=O)c1cccc(OC[C@@H](O)CNC2COC3(CCN(S(=O)(=O)c4ccc5c(c4)NC(=O)CO5)CC3)C2)c1` (stereo partly drawn) [Compound 250, 3-((2S)-2-hydroxy-3-(8-(3-oxo-3,4-dihydro-2H-benzo[b][1,4]oxazin-6-ylsulfonyl)-1-oxa-8-azaspiro[4.5]decan-3-ylamino)propoxy)-N,N-dimethylbenzenesulfonamide], the concentration for half-maximal inhibition (IC50) was determined as 0.0242 µM. Consider `CN(C)S(=O)(=O)c1cccc(OC[C@@H](O)CNC2COC3(CCN(S(=O)(=O)c4ccc5nsnc5c4)CC3)C2)c1` (stereo partly drawn) [Compound 251, 3-((2S)-3-(8-(benzo[c][1,2,5]thiadiazol-5-ylsulfonyl)-1-oxa-8-azaspiro[4.5]decan-3-ylamino)-2-hydroxypropoxy)-N,N-dimethylbenzenesulfonamide], for which the half-maximal inhibitory concentration (IC50) stood at 0.0329 µM. In the case of `Cc1c(S(=O)(=O)N2CCC3(CC2)CC(NC[C@H](O)COc2cccc(S(=O)(=O)N(C)C)c2)CO3)cnn1-c1ccccc1` (stereo partly drawn) [Compound 252, 3-((2S)-2-hydroxy-3-(8-(5-methyl-1-phenyl-1H-pyrazol-4-ylsulfonyl)-1-oxa-8-azaspiro[4.5]decan-3-ylamino)propoxy)-N,N-dimethylbenzenesulfonamide], the IC50 was 0.0293 µM. As to `CN(C)S(=O)(=O)c1cccc(OC[C@@H](O)CNC2COC3(CCN(S(=O)(=O)c4ccc5c(c4)CCCC5)CC3)C2)c1` (stereo partly drawn) [Compound 253, 3-((2S)-2-hydroxy-3-(8-(5,6,7,8-tetrahydronaphthalen-2-ylsulfonyl)-1-oxa-8-azaspiro[4.5]decan-3-ylamino)propoxy)-N,N-dimethylbenzenesulfonamide], the half-inhibitory concentration (IC50) came to 0.0226 µM. For `Cc1noc(C)c1S(=O)(=O)N1CCC2(CC1)CC(NC[C@H](O)COc1cccc(S(=O)(=O)N(C)C)c1)CO2` (stereo partly drawn) [Compound 254, 3-((2S)-3-(8-(3,5-dimethylisoxazol-4-ylsulfonyl)-1-oxa-8-azaspiro[4.5]decan-3-ylamino)-2-hydroxypropoxy)-N,N-dimethylbenzenesulfonamide], the concentration for half-maximal inhibition (IC50) is 0.0973 µM.

With `CN(C)S(=O)(=O)c1cccc(OC[C@@H](O)CNC2COC3(CCN(S(=O)(=O)c4ccc(-c5ccccc5)s4)CC3)C2)c1` (stereo partly drawn) [Compound 255, 3-((2S)-2-hydroxy-3-(8-(5-phenylthiophen-2-ylsulfonyl)-1-oxa-8-azaspiro[4.5]decan-3-ylamino)propoxy)-N,N-dimethylbenzenesulfonamide], the IC50 came out at 0.0551 µM.

Take `CN1CCOc2ccc(S(=O)(=O)N3CCC4(CC3)CC(NC[C@H](O)COc3cccc(S(=O)(=O)N(C)C)c3)CO4)cc21` (stereo partly drawn) [Compound 256, 3-((2S)-2-hydroxy-3-(8-(4-methyl-3,4-dihydro-2H-benzo[b][1,4]oxazin-6-ylsulfonyl)-1-oxa-8-azaspiro[4.5]decan-3-ylamino)propoxy)-N,N-dimethylbenzenesulfonamide]: the half-inhibitory concentration (IC50) is 0.0211 µM. Take `CN(C)S(=O)(=O)c1cccc(OC[C@@H](O)CNC2COC3(CCN(S(=O)(=O)c4ccc(Cl)c5nonc45)CC3)C2)c1` (stereo partly drawn) [Compound 257, 3-((2S)-3-(8-(7-chlorobenzo[c][1,2,5]oxadiazol-4-ylsulfonyl)-1-oxa-8-azaspiro[4.5]decan-3-ylamino)-2-hydroxypropoxy)-N,N-dimethylbenzenesulfonamide]: the concentration for half-maximal inhibition (IC50) came out at 0.037 µM.

Consider `CNS(=O)(=O)c1cccc(OC[C@@H](O)CNC2COC3(CCN(S(=O)(=O)c4ccc(OC)c5ccccc45)CC3)C2)c1` (stereo partly drawn) [Compound 258, 3-((2S)-2-hydroxy-3-(8-(4-methoxynaphthalen-1-ylsulfonyl)-1-oxa-8-azaspiro[4.5]decan-3-ylamino)propoxy)-N-methylbenzenesulfonamide], for which the IC50 amounted to 0.0679 µM. With `CNS(=O)(=O)c1cccc(OC[C@@H](O)CNC2COC3(CCN(S(=O)(=O)c4cc(Br)ccc4Cl)CC3)C2)c1` (stereo partly drawn) [Compound 259, 3-((2S)-3-(8-(5-bromo-2-chlorophenylsulfonyl)-1-oxa-8-azaspiro[4.5]decan-3-ylamino)-2-hydroxypropoxy)-N-methylbenzenesulfonamide], the IC50 amounted to 0.0231 µM. Consider `CNS(=O)(=O)c1cccc(OC[C@@H](O)CNC2COC3(CCN(S(=O)(=O)c4cc(Br)cc5c4OCC5)CC3)C2)c1` (stereo partly drawn) [Compound 260, 3-((2S)-3-(8-(5-bromo-2,3-dihydrobenzofuran-7-ylsulfonyl)-1-oxa-8-azaspiro[4.5]decan-3-ylamino)-2-hydroxypropoxy)-N-methylbenzenesulfonamide], for which the IC50 was found to be 0.0203 µM.

For the molecule `CNS(=O)(=O)c1cccc(OC[C@@H](O)CNC2COC3(CCN(S(=O)(=O)c4c(C)nn(-c5ccccc5)c4C)CC3)C2)c1` (stereo partly drawn) [Compound 261, 3-((2S)-3-(8-(3,5-dimethyl-1-phenyl-1H-pyrazol-4-ylsulfonyl)-1-oxa-8-azaspiro[4.5]decan-3-ylamino)-2-hydroxypropoxy)-N-methylbenzenesulfonamide], the IC50 amounted to 0.0475 µM. As for `CNS(=O)(=O)c1cccc(OC[C@@H](O)CNC2COC3(CCN(S(=O)(=O)c4c(Cl)ccc5nonc45)CC3)C2)c1` (stereo partly drawn) [Compound 262, 3-((2S)-3-(8-(5-chlorobenzo[c][1,2,5]oxadiazol-4-ylsulfonyl)-1-oxa-8-azaspiro[4.5]decan-3-ylamino)-2-hydroxypropoxy)-N-methylbenzenesulfonamide], the concentration for half-maximal inhibition (IC50) came to 0.0543 µM.

In the case of `CNS(=O)(=O)c1cccc(OC[C@@H](O)CNC2COC3(CCN(S(=O)(=O)c4cc(OC)ccc4C#N)CC3)C2)c1` (stereo partly drawn) [Compound 263, 3-((2S)-3-(8-(2-cyano-5-methoxyphenylsulfonyl)-1-oxa-8-azaspiro[4.5]decan-3-ylamino)-2-hydroxypropoxy)-N-methylbenzenesulfonamide], the 50% inhibitory concentration (IC50) is 0.0308 µM.
